Columns and labels:
[1] = tested on: sensitive (w.1); assay: greenhouse experiment, control of resistant weeds: sensitive biotype; assay type: in vivo; conditions: for weed control (%) w.1: AMATA Amaranthus tamariscinus, sensitive biotype; for activity on sensitive weeds (w.1): greenhouse, scale from 0 to 100
Text: (§1) The culture containers used were plastic flowerpots containing loamy sand with approximately 3.0% of humus as the substrate. The seeds of the test plants were sown separately for each species and/or resistant biotype. For the pre-emergence treatment, the active ingredients, which had been suspended or emulsified in water, were applied directly after sowing by means of finely distributing nozzles. The containers were irrigated gently to promote germination and growth and subsequently covered with transparent plastic hoods until the plants had rooted. This cover caused uniform germination of the test plants, unless this had been impaired by the active ingredients. For the post-emergence treatment, the test plants were first grown to a height of 3 to 15 cm, depending on the plant habit, and only then treated with the active ingredients which had been suspended or emulsified in water. For this purpose, the test plants were either sown directly and grown in the same containers, or they were first grown separately as seedlings and transplanted into the test containers a few days prior to treatment. Depending on the species, the plants were kept at 10-25° C. or 20-35° C., respectively. The test period extended over 2 to 4 weeks. During this time, the plants were tended, and their response to the individual treatments was evaluated. The evaluation was carried out by using a scale from 0 to 100. 100 means no emergence of the plants or complete destruction of at least the above-ground parts, and 0 means no damage, or normal course of growth.
(§2) The plants used in the greenhouse experiments were of the following species and biotype: […]

[2] = tested on: resistant weeds containing the ΔG210 mutation (w.2); assay: greenhouse experiment, control of resistant weeds: resistant biotype; assay type: in vivo; conditions: for weed control (%) w.2: AMATA Amaranthus tamariscinus, PPO resistant biotype 1 (ΔG210 mutation); for activity on resistant weeds containing the ΔG210 mutation (w.2): greenhouse, scale from 0 to 100
Text: as §1, §2

[3] = tested on: resistant weeds containing the ΔG210 mutation (w.3); assay: as above; assay type: in vivo; conditions: for weed control (%) w.3: AMATA Amaranthus tamariscinus, PPO resistant biotype 2 (ΔG210 mutation); for activity on resistant weeds containing the ΔG210 mutation (w.3): greenhouse, scale from 0 to 100
Text: as §1, §2

[4] = tested on: ZEAMX; assay: greenhouse experiments, post-emergence treatment, crop compatibility; assay type: in vivo, Zea mays; conditions: crop plants ZEAMX, application rate 2 g/ha, scale 0 to 100
Text: (§3) The culture containers used were plastic flowerpots containing loamy sand with approximately 3.0% of humus as the substrate. The seeds of the test plants were sown separately for each species.
(§4) For the pre-emergence treatment, the active ingredients, which had been suspended or emulsified in water, were applied directly after sowing by means of finely distributing nozzles. The containers were irrigated gently to promote germination and growth and subsequently covered with transparent plastic hoods until the plants had rooted. This cover caused uniform germination of the test plants, unless this had been impaired by the active ingredients. For the post-emergence treatment, the test plants were first grown to a height of 3 to 15 cm, depending on the plant habit, and only then treated with the active ingredients which had been suspended or emulsified in water. For this purpose, the test plants were either sown directly and grown in the same containers, or they were first grown separately as seedlings and transplanted into the test containers a few days prior to treatment.
(§5) Depending on the species, the plants were kept at 10-25° C. or 20-35° C., respectively. The test period extended over 2 to 4 weeks. During this time, the plants were tended, and their response to the individual treatments was evaluated.
(§6) Evaluation was carried out using a scale from 0 to 100. […]

[5] = tested on: MATCH; assay: greenhouse experiments, herbicidal activity, post-emergence treatment; assay type: in vivo, Matricaria chamomilla; conditions: application rate 8 g/ha, scale 0 to 100
Text: as §3, §4, §5, §6

[6] = tested on: CHEAL; assay: as above; assay type: in vivo, Chenopodium album; conditions: application rate 1 g/ha, scale 0 to 100
Text: as §3, §4, §5, §6

[7] = tested on: ALOMY; assay: as above; assay type: in vivo, Alopecurus myosuroides; conditions: application rate 8 g/ha, scale 0 to 100
Text: as §3, §4, §5, §6

[8] = tested on: LOLMU; assay: as above; assay type: in vivo, Lolium multiflorum; conditions: application rate 8 g/ha, scale 0 to 100
Text: as §3, §4, §5, §6

[9] = tested on: BRADC; assay: as above; assay type: in vivo, Brachiaria decumbens; conditions: application rate 2 g/ha, scale 0 to 100
Text: as §3, §4, §5, §6

Structure (SMILES)	weed control (%) w.1 ([1]; use rate 2 g/ha)	weed control (%) w.1 ([1]; use rate 4 g/ha)	weed control (%) w.2 ([2]; use rate 2 g/ha)	weed control (%) w.2 ([2]; use rate 4 g/ha)	activity on resistant weeds containing the ΔG210 mutation (w.2) [2]	weed control (%) w.3 ([3]; use rate 2 g/ha)	weed control (%) w.3 ([3]; use rate 4 g/ha)	activity on resistant weeds containing the ΔG210 mutation (w.3) [3]	activity on sensitive weeds (w.1) [1]	damages [4]	damages [5]	damages [6]	damages [7]	damages [8]	damages [9]
C#CCOc1cc(-n2nc3n(c2=O)CCCC3)c(Cl)cc1Cl [azafenidin, reference compound]	88%	100%	62%	78%	much weaker control of resistant in comparison to sensitive biotypes	77%	77%	much weaker control of resistant in comparison to sensitive biotypes	–	–	–	–	–	–	–
CCOC(=O)COc1ccccc1Oc1nc(-n2c(=O)cc(C(F)(F)F)n(C)c2=O)c(F)cc1Cl [compound 1, Ethyl 2-[2-[[3-chloro-5-fluoro-6-[3-methyl-2,6-dioxo-4-(trifluoromethyl)pyrimidin-1-yl]-2-pyridyl]oxy]phenoxy]acetate]	88%	100%	87%	100%	very good activity	98%	100%	very good activity	very good activity	–	–	–	–	–	–
COC(=O)C(OC)Oc1ccccc1Oc1nc(-n2c(=O)cc(C(F)(F)F)n(C)c2=O)c(F)cc1Cl (centres unmarked) [compound 2, Methyl 2-[2-[[3-chloro-5-fluoro-6-[3-methyl-2,6-dioxo-4-(trifluoromethyl)pyrimidin-1-yl]-2-pyridyl]oxy]phenoxy]-2-methoxy-acetate]	–	–	–	–	–	–	–	–	–	25	70	90	70	70	80
CCOC(=O)COc1ncccc1Oc1nc(-n2c(=O)cc(C(F)(F)F)n(C)c2=O)c(F)cc1Cl [compound 7, Ethyl 2-[[3-[[3-chloro-5-fluoro-6-[3-methyl-2,6-dioxo-4-(trifluoromethyl)pyrimidin-1-yl]-2-pyridyl]oxy]-2-pyridyl]oxy]acetate]	93%	100%	100%	100%	very good activity	100%	100%	very good activity	very good activity	–	–	–	–	–	–
